EC50 and inhibition data for 10 molecules are collected here from patent US10285983B2, “3-(1H-pyrrolo[2,3-B]pyridin-2-yl)-1H-pyrazolo[3,4-B] pyridines and therapeutic uses thereof” (Samumed, LLC, priority 2015, dated 2019).

Holding throughout (type): cell-based
The subject of assay [1] is primary human fibroblasts derived from IPF patients (LL29 cells). Kind of assay: Inhibition of fibrotic process, αSMA staining in TGF-β1 treated LL29 fibroblasts. The note with it: Fibroblast, 96 h, TGF-β1 20 ng/mL, 4 days; for pEC50: % αSMA positive cells; for inhibition at 10 µM: given for EC50 >10 μM, read-out: percent inhibition at 10 μM. In a few lines:
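IPF-patient LL29 lung fibroblasts in 1% FBS medium received compound (11-point, 1:2 dilution, 0.1% DMSO) plus TGF-β1 20 ng/mL, 4 days at 37 °C. Percent αSMA-positive cells among SYTOX-negative cells quantified by immunofluorescence imaging, normalized to TGF-β1/DMSO wells. EC50 by non-linear regression on triplicates; above 10 μM, % inhibition at 10 μM given.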

The test system of another assay is SW480 colon cancer cells. In words: Cell viability assay (CellTiter-Blue). Conditions: Homo sapiens, 96 h, four days; for inhibition at 10 µM: given for EC50 >10 μM, read-out: percent inhibition at 10 μM. In a few lines: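 Resazurin reduction (Ex 560/Em 590 nm, ~3 h reagent incubation) served as the viability read-out after SW480 cells were treated for four days at 37 °C. Doses ran from 10 μM down to 0.0045 μM in eight 1:3 steps. Curves fitted non-linearly for EC50, else % inhibition at 10 μM reported.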
A general note: Resazurin is reduced to fluorescent resorufin, in cell work by metabolically active cells.

Assay [2] relates to IL-6 (THP-1 human monocyte cell line). Kind of assay: IL-6 inhibition in LPS-stimulated THP-1 cells (HTRF). The note with it: LPS 500 ng/mL; for pEC50: 22 hours, IL6 HTRF; for inhibition at 10 µM: given for EC50 >10 μM, read-out: percent inhibition at 10 μM. In a few lines: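 THP-1 cells, serum-reduced to 1% FBS for 24 h, preincubated 2 h at 37° C with compound (10-point, 1:3 series, 0.1% DMSO), then stimulated with 500 ng/mL LPS for 22 h. IL-6 quantified by HTRF 665/620 nm ratio, normalized to DMSO; EC50 by four-parameter fit, else percent inhibition at 10 μM.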
On the technique in general: Time-resolved FRET reads energy transfer from a long-lived donor to a nearby acceptor.

SMILES strings stand for the structures. pEC50: −log10 of the molar value. Where only a bound is given, the exact number is not on record here.

As for `CN(C)CCNc1cc(F)cc(-c2ccnc3[nH]c(-c4n[nH]c5ncc(-c6cncc(NC(=O)C(C)(C)C)c6)cc45)cc23)c1` [Compound 456, N-(5-(3-(4-(3-((2-(Dimethylamino)ethyl)amino)-5-fluorophenyl)-1H-pyrrolo [2,3-b]pyridin-2-yl)-1H-pyrazolo[3,4-b]pyridin-5-yl)pyridin-3-yl)pivalamide], the negative-log EC50 (pEC50) – broadly, the negative decadic logarithm of the EC50, by convention in mol/L – in assay [1] was below 5.00; in the assay on SW480 colon cancer cells, below 5.00; in assay [2] it was 5.82. The inhibition at 10 µM (in assay [1]; in the assay with SW480 colon cancer cells) was 0% each time.
For the molecule `CN(C)CCNc1cc(F)cc(-c2ccnc3[nH]c(-c4n[nH]c5ncc(-c6cncc(NC(=O)C7CCC7)c6)cc45)cc23)c1` [Compound 469, N-(5-(3-(4-(3-((2-(Dimethylamino)ethyl)amino)-5-fluorophenyl)-1H-pyrrolo [2,3-b]pyridin-2-yl)-1H-pyrazolo[3,4-b]pyridin-5-yl)pyridin-3-yl)cyclobutanecarboxamide], the pEC50 in assay [1] was below 5.00; with SW480 colon cancer cells, below 5.00; in assay [2], 6.65. The inhibition at 10 µM (in assay [1]; in the assay with SW480 colon cancer cells) was 0% throughout.
For `Fc1cccc(-c2ccnc3[nH]c(-c4n[nH]c5ncc(-c6cncc(OCc7ccccc7)c6)cc45)cc23)c1` [Compound 518, 5-(5-(Benzyloxy)pyridin-3-yl)-3-(4-(3-fluorophenyl)-1H-pyrrolo[2,3-b]pyridin-2-yl)-1H-pyrazolo[3,4-b]pyridine], the negative logarithm of the EC50 (pEC50) (in assay [1]; with SW480 colon cancer cells; in assay [2]) was below 5.00 throughout. Further, the results for the inhibition at 10 µM (in assay [1]; in the assay on SW480 colon cancer cells; in assay [2]) were 0%, 16.3% and 6.3%, respectively.
For the molecule `Oc1cncc(-c2cnc3[nH]nc(-c4cc5c(-c6ccc(F)cc6)ccnc5[nH]4)c3c2)c1` [Compound 533, 5-(3-(4-(4-Fluorophenyl)-1H-pyrrolo[2,3-b]pyridin-2-yl)-1H-pyrazolo[3,4-b]pyridin-5-yl)pyridin-3-ol], the pEC50 in assay [1] was 5.17; in the assay on SW480 colon cancer cells it was below 5.00; in assay [2] it was below 5.00. Further, the inhibition (commonly the share of the control response that was lost under treatment) at 10 µM in the assay on SW480 colon cancer cells was 19%; in assay [2], 20.7%.
With `CN(C)CCOc1cncc(-c2cnc3[nH]nc(-c4cc5c(-c6cccnc6)ccnc5[nH]4)c3c2)c1` [Compound 563, N,N-dimethyl-2-((5-(3-(4-(pyridin-3-yl)-1H-pyrrolo[2,3-b]pyridin-2-yl)-1H-pyrazolo[3,4-b]pyridin-5-yl)pyridin-3-yl)oxy)ethan-1-amine], the pEC50 in assay [1] is 5.61; in the assay on SW480 colon cancer cells, below 5.00; in assay [2], below 5.00. The inhibition at 10 µM is 5.3% in the assay on SW480 colon cancer cells and 18.7% in assay [2].
In the case of `O=C(CC1CCNCC1)Nc1cncc(-c2cnc3[nH]nc(-c4cc5c(-c6ccncc6)ccnc5[nH]4)c3c2)c1` [Compound 577], the negative logarithm of the EC50 (pEC50) in assay [1] was 5.85; in the assay on SW480 colon cancer cells, below 5.00; in assay [2], below 5.00. Besides, the inhibition at 10 µM in the assay on SW480 colon cancer cells amounted to 8.7%; in assay [2] it was 0%.
Turning to `CN1CCN(c2ccnc3[nH]c(-c4n[nH]c5ncc(-c6cn[nH]c6)cc45)cc23)CC1` [Compound 635, 3-(4-(4-Methylpiperazin-1-yl)-1H-pyrrolo[2,3-b]pyridin-2-yl)-5-(1H-pyrazol-4-yl)-1H-pyrazolo[3,4-b]pyridine], the pEC50 (in assay [1]; in the assay on SW480 colon cancer cells; in assay [2]) was below 5.00 in each case. Also, the inhibition at 10 µM in assay [1] was found to be 26%; in the assay with SW480 colon cancer cells, 3.6%; in assay [2], 21.4%.
In the case of `Cn1cc(-c2cnc3[nH]nc(-c4cc5cccnc5[nH]4)c3c2)cn1` [Compound 652, 5-(1-Methyl-1H-pyrazol-4-yl)-3-(1H-pyrrolo[2,3-b]pyridin-2-yl)-1H-pyrazolo[3,4-b]pyridine], the values for the negative logarithm of the EC50 (pEC50) (in assay [1]; with SW480 colon cancer cells; in assay [2]) were 6.64, below 5.00 and 6.11, respectively. Further, the inhibition at 10 µM in the assay with SW480 colon cancer cells turned out to be 9.2%.
Turning to `c1csc(-c2ccnc3[nH]c(-c4n[nH]c5ncc(-c6cncc(OC7CCCCC7)c6)cc45)cc23)c1` [Compound 703, 5-(5-(Cyclohexyloxy)pyridin-3-yl)-3-(4-(thiophen-2-yl)-1H-pyrrolo[2,3-b]pyridin-2-yl)-1H-pyrazolo[3,4-b]pyridine], the pEC50 in assay [1] is 5.60; with SW480 colon cancer cells, below 5.00; in assay [2] it was below 5.00. Besides, the inhibition at 10 µM in the assay with SW480 colon cancer cells came to 23.3%; in assay [2], 11%.
Turning to `Cc1ncc(-c2cnc3[nH]nc(-c4cc5c(-c6cc(F)cc(NCCN(C)C)c6)ccnc5[nH]4)c3c2)n1C` [Compound 781, N^1-(3-(2-(5-(1,2-Dimethyl-1H-imidazol-5-yl)-1H-pyrazolo[3,4-b]pyridin-3-yl)-1H-pyrrolo[2,3-b]pyridin-4-yl)-5-fluorophenyl)-N^2,N^2-dimethylethane-1,2-diamine], the figures for the pEC50 (in assay [1]; in the assay on SW480 colon cancer cells; in assay [2]) were 6.03, below 5.00 and below 5.00, respectively. Besides, the figures for the inhibition at 10 µM (in the assay with SW480 colon cancer cells; in assay [2]) were 0% and 44.5%, respectively.
